Experiments:
[1] = tested on: light-evoked excitatory postsynaptic currents (EPSCs) in lamina I-II outer neurons; test: Spinal cord slice whole-cell recording of light-evoked EPSCs from ChR2-expressing TRPV1 nociceptors; type: cell-based, mouse
From the text: FIG. 4. Opioid-induced spinal long-term potentiation (LTP) is initiated by presynaptic MOR in nociceptors. (a,b) MOR cKO mice crossed with a mouse line expressing Channel-rhodopsin2 (ChR2-eYFP) in a Cre-dependent manner produces expression of ChR2-eYFP in Trpv1^Cre+DRG nociceptor cell bodies and central terminals in the spinal cord dorsal horn. Scale bars=50 m, throughout. (c,d) Blue light-evoked (473 nm, 1.0 mW/cm^2, 0.2 ms, 0.05 Hz) excitatory postsynaptic currents (EPSCs) recorded in laminae I and II outer spinal neurons in slices from MOR cKO and littermate controls. Numbered inset traces correspond to individual EPSCs before, during, and after wash-out of bath applied DAMGO (500 nM; 5 min duration). Scale bar=100 pA, 10 ms. (c) DAMGO-induced depression of EPSC amplitude and rebound LTP after washout (Control+LTP; n=8/15 neurons) in control slices. […] Error bars are mean±SEM.
Adult mice (6-8 weeks old) were anesthetized with isoflurane, decapitated, and the vertebral column was rapidly removed and placed in oxygenated ice-cold dissection solution (in mM: 95 NaCl, 2.5 KCl, 1.25 NaH2PO4, 26 NaHCO3, 50 sucrose, 25 glucose, 6 MgCl2, 1.5 CaCl2, and 1 kynurenic acid, pH 7.4, 320 mOsm). The lumbar spinal cord was isolated, embedded in a 3% agarose block, and transverse slices (400 Lm thick) were made using a vibrating microtome (Leica V T 1200S). Slices were incubated in oxygenated recovery solution (in mM: 125 NaCl, 2.5 KCl, 1.25 NaH2PO4, 26 NaHCO3, 25 glucose, 6 MgCl2, and 1.5 CaCl2, pH 7.4, 320 mOsm) at 35° C. for 1 hour before recording. Patch-clamp recording in whole-cell configuration was performed at 32° C. on lamina I or lamina II outer zone neurons visualized with an Olympus microscope (BX51WI age-MTI). Slices were perfused at ˜2 ml/min with recording solution (in mM: 125 NaCl, 2.5 KCl, 1.25 NaH2PO4, 26 NaHCO3, 25 glucose, 1 MgCl2, 2 CaCl2, pH 7.4, 320 mOsm). Recordings were performed in voltage-clamp mode at a holding potential of −70 mV. Thick-walled borosilicate pipettes, having a resistance of 3-6 MOhm, were filled with internal solution (in mM: 120 potassium gluconate, 20 KCl, 2 MgCl2, 5 MgATP, 0.5 NaGTP, 20 HEPES, 0.5 EGTA, PH 7.25 with KOH, ˜300 mOsm). All data were acquired using a Multiclamp 700B amplifier and pClamp10 software (Molecular Devices). Sampling rate was 10 kHz and data were filtered at 2 kHz. Analysis of eEPSC peak amplitudes was done with Clampfit software (pClamp10, Molecular Devices). Graphs and statistical analysis were generated with Igor Pro (Wave Metrics).
To isolate the TRPV1 nociceptor mediated EPSCs, we crossed the TRPV1-Cre mice with Ai32 mice (Rosa-CAG-LSL-ChR2(H134R)-EYFP-WPRE) (Bardoni et al., 2014) to limit the channelrhodopsin 2 expression specifically to TRPV1 primary afferents. […]

laxation responses = details: subcutaneous MNB 5, 12.5 or 20 mg; clinical; cited from earlier work
wild-type C57Bl/6J mice = test: Morphine and MNB combination in wild-type mice: nociceptive reflexes, affective-motivational behaviors, tolerance and OIH; type: in vivo, mouse
Procedure: (a) Temporal raster plot of nociception-induced sensory-reflexive and affective-motivational behaviors in an inescapable noxious environment (enclosed 52.5° C. hotplate). […] MNB doses 0.0-1.0 mg/kg, n=10; MNB 10 mg/kg, n=7 for reflexive tests and n=5 for affective-motivational tests. Best-fit lines were generated following non-linear regression analysis based on the % MPE for each mouse. One-way ANOVA+Bonferroni (left panels of b,d,f-k). ★ P<0.05. Error bars are mean±SEM. Overlaid points are individual animal scores. PID=post-injury day.
(b) Visual depiction of reflexive paw flinching behavior. (c) Latencies to the first paw flinch. (d) Number of paw flinches (see FIG. 17). (e) Visual depiction of hindpaw guarding behavior. (f) Latency to the first onset of hindpaw guarding. (g) Total duration of time spent engaged in hindpaw guarding. (h) Visual depiction of hindpaw attending. (i) Latency to the first onset of hindpaw attending. (j) Total duration of time spent engaging in hindpaw attending. (k) Visual depiction of escape jumping behavior. (1) Latency to the first jump. […] (m) Number of escape jumps. […] Error bars are±SEM.
Repeated Measures 2-way ANOVA+Bonferonni. ★ P<0.05. Error bars are mean±SEM.
To evaluate mechanical reflexive hypersensitivity (Weibel et al., 2013), we used a logarithmically increasing set of 8 von Frey filaments (Stoelting), ranging in gram force from 0.007 to 6.0 g. These were applied perpendicular to the plantar hindpaw with sufficient force to cause a slight bending of the filament. A positive response was characterized as a rapid withdrawal of the paw away from the stimulus filament within 4 s. Using the up-down statistical method (Solway et al., 2011), the 50% withdrawal mechanical threshold scores were calculated for each mouse and then averaged across the experimental groups.
To evaluate affective-motivational responses to an acute, focal thermal stimulus (Madisen et al., 2012), we applied either a single, unilateral 50 μl drop of 55° C. water or acetone (evaporative cooling) to the left hindpaw, and the duration of attending behavior was collected for up to 30 seconds after the stimulation. Only one stimulation per thermal drop was applied on a given testing session, in order to prevent behavioral sensitization that can result from multiple noxious stimulations and then averaging those responses.
To evaluate affective-motivational responses to a sustained, inescapable noxious thermal stimulus, mice were placed on a 52.5° C. hot plate for 45 seconds. A high-speed camera (on the side, level with the hot plate floor) was used to capture the movement, speed, velocity, and detailed reflexive and affective-motivational behaviors of the mice, as described above.
As opposed to the standard hot-plate test, all behaviors such as reflexive paw flinching (rapid flicking of the limb), paw attending (directed licking of the limb), paw guarding (intentional lift protection of the limb), and escape jumping for the duration of the trial were scored. This allowed the analysis of the high-speed videos, blinded to plate temperature or treatment, for the total time spent engaging in affective-motivational behaviors and the number of nociceptive reflexives, as opposed to the traditional metric of merely determining the latency to the first reflexive response.

Structure (SMILES)	EPSC amplitude during DAMGO ([1]; MOR cKO slices, 9 out of 9 neurons, 500 nM)	EPSC amplitude after DAMGO-washout ([1]; MOR cKO slices, 9 out of 9 neurons, after washout of 500 nM)	EPSC amplitude after washout (LTP) ([1]; control slices, 8 out of 15 neurons, thirty minutes after washout of 500 nM)	depression of light-evoked EPSCs ([1]; control slices, all 15 recorded neurons, 500 nM bath application, at 5 min of application)	laxation responses, percentage of responders (laxation responses)	dose-response of MNB effect on morphine tolerance, latency to nociceptive reflexes (paw flinch) (wild-type C57Bl/6J mice; 45 s 52.5° C. hot plate, morphine 10 mg/kg + MNB 0.1-10.0 mg/kg)	effect of MNB on morphine antinociceptive effects (wild-type C57Bl/6J mice; MNB 0.1-10.0 mg/kg combined with morphine)	onset of morphine antinociceptive tolerance and OIH, 10-day treatment (wild-type C57Bl/6J mice; MNB 1 or 10 mg/kg + morphine for 10 days, von Frey and 52.5° C. hotplate)	onset of tolerance and OIH (wild-type C57Bl/6J mice; morphine 10 mg/kg + MNB 0.1-10.0 mg/kg once daily for 7 days)
C[C@@H](NC(=O)[C@@H](N)Cc1ccc(O)cc1)C(=O)NCC(=O)N(C)[C@@H](Cc1ccccc1)C(=O)NCCO [DAMGO, [D-Ala^2, N-MePhe^4, Gly-ol^5]-enkephalin]	98±8.12 % of control	96.2±11.9%	142.2±6.1 % of control	52±10.5 % inhibition					
C[N@+]1(CC2CC2)CC[C@]23c4c5ccc(O)c4O[C@H]2C(=O)CC[C@@]3(O)[C@H]1C5 [MNB, methylnaltrexone bromide]					higher percentage of responders after 5 or 12.5 mg subcutaneous MNB compared to a 20 mg dose	bell-shaped dose-response curve	did not alter morphine antinociceptive effects	prevents the onset of morphine antinociceptive tolerance and OIH	dose-dependently prevents the onset of morphine antinociceptive tolerance and OIH

Reference: patent US20180214442A1, “METHODS FOR ATTENUATING OR PREVENTING MU(μ)-OPIOID RECEPTOR MEDIATED TOLERANCE AND OPIOID-INDUCED […]” (The Board of Trustees of the Leland Stanford Junior …, priority 2017, published 2018)
